In ChEMBL document CHEMBL1151361, “Soularubinone, a new antileukemic quassionoid from Soulamea tomentosa” (1981):

Assays:
Assay type in all cases: functional
P388 [1] = test: In vivo antitumor activity against mouse P388 cells at 9 mg/kg relative to control
P388 [2] = test: In vivo antitumor activity against mouse P388 cells at 0.5 mg/kg relative to control
P388 [3] = test: In vivo antitumor activity against mouse P388 cells at 4 mg/kg relative to control
P388 [4] = test: In vivo antitumor activity against mouse P388 cells at 2 mg/kg relative to control

## CC(=O)O[C@H]1C(=O)O[C@@H]2C[C@H]3C(C)=CC(=O)[C@@H](O)[C@]3(C)[C@H]3[C@]4(O)OC[C@]32[C@@H]1[C@@H](C)[C@H]4O [HOLACANTHONE]
P388 [1]
  T/C: 159%

## CC[C@](C)(O)C(=O)O[C@H]1C(=O)O[C@@H]2C[C@H]3C(C)=CC(=O)[C@@H](O)[C@]3(C)[C@H]3[C@@]4(O)OC[C@]32[C@@H]1[C@@H](C)[C@H]4O [GLAUCARUBINONE]
P388 [2]
  T/C: 231%

## CC1=CC(=O)[C@@H](O)[C@]2(C)[C@H]3[C@]4(O)OC[C@]35[C@H]([C@@H](C)[C@H]4O)[C@@H](OC(=O)CC(C)(C)O)C(=O)O[C@@H]5C[C@@H]12 [SOULARUBINONE]
P388 [3]
  T/C: 137%

## CCC(C)C(=O)O[C@H]1C(=O)O[C@@H]2C[C@H]3C(C)=CC(=O)[C@@H](O)[C@]3(C)[C@H]3[C@]4(O)OC[C@]32[C@@H]1[C@@H](C)[C@H]4O (some centres undefined) [AILANTHINONE]
P388 [4]
  T/C: 148%
